Results taken from article PMC6369847 (International Journal of Nanomedicine, 2019).
Values after ≈ are worked out from the molar mass of the structure shown. Peptide text beside a SMILES is read from it. * marks the point of attachment. Stearoyl = CCCCCCCCCCCCCCCCCC(=O)*

What was measured:
[1] = Encapsulation efficiency and drug loading of micelles; assay type: physicochemical; conditions: S-HM-3 concentration ranging from 0.1 to 0.7 mg/mL; data not shown
HUVECs = assay: Transwell cell migration assay; assay type: cell-based, Human; conditions: 24 hours, Avstin 10 µg/mL, S-HM-3, TSm, HTSm 9 µg/mL, n=3
[2] = In vivo pharmacokinetic studies of S-HM-3; design: species or system Sprague Dawley rats; conditions: rat, background statement of the abstract
[3] = In vivo distribution studies of S-HM-3; design: species or system nude mice; conditions: MDA-MB-231 tumor-bearing mice, vein injection, free S-HM-3
MDA-MB-231 tumors = assay: H&E staining and immunohistochemical analysis; assay type: in vivo, nude mice; conditions: tumor sections at 14 days, n=5
[4] = Body weight of mice during the antitumor assay; assay type: in vivo; conditions: tumor-bearing nude mice
MDA-MB-231 cells = assay: Cytotoxicity test by MTT assay, MDA-MB-231; assay type: cell-based; conditions: Homo sapiens, MDA-MB-231, 48 h
[5] = In vivo pharmacokinetic studies of PTX; design: species or system Sprague Dawley rats
[6] = male, Sprague Dawley, rat, plasma, iv, 7 mg/kg

Compound | encapsulation efficiency of S-HM-3 [1] [%] | endothelial cell MI rate (migration inhibition rate) (HUVECs) [%] | half-life [2] [h] | time at which S-HM-3 in organs reached the peak [3] [min] | time at which S-HM-3 was nearly cleared from organs [3] [min] | antiangiogenesis effect (CD31, microvessel density) (MDA-MB-231 tumors) | apoptosis in tumor cells (positive p53 rate) (MDA-MB-231 tumors) | toxicity judged from body weight ([4]; regimen of Table 1) | body weight of mice during the test period ([4]; regimen of Table 1, 14 days) | IC50 (MDA-MB-231 cells) [µg/mL] | V1 of PTX ([5]; SD rats, i.v. single dose, 7 mg/kg PTX) [L/kg] | CL of PTX ([5]; SD rats, i.v. single dose, 7 mg/kg PTX, 7 mg/kg) [mL/min/kg] | Vd [5, 6] [L/kg] | half-life [5, 6] [h] | weight loss of mice during the 0–10 days ([4]; regimen of Table 1)
CCCCCCCCCCCCCCCCCC(=O)N[C@H](C(=O)N[C@H](C(=O)N[C@@H](CCCNC(=N)N)C(=O)N[C@@H](CCCNC(=N)N)C(=O)N[C@@H](C)C(=O)N[C@@H](CC(=O)O)C(=O)N[C@@H](CCCNC(=N)N)C(=O)N[C@@H](C)C(=O)N[C@@H](C)C(=O)N[C@H](C(=O)N1CCC[C@H]1C(=O)NCC(=O)NCC(=O)NCC(=O)NCC(=O)N[C@@H](CCCNC(=N)N)C(=O)NCC(=O)N[C@@H](CC(=O)O)C(=O)O)C(C)C)C(C)C)[C@@H](C)CC [S-HM-3] (Stearoyl-IVRRADRAAVPGGGGRGD-OH; N-terminus and C-terminus assumed) | > 97 | 60.55 | 0.417 | 24 | 60 | almost the same antiangiogenesis effect | did not induce significant apoptosis | very low toxicity or nontoxic | significantly increased | – | – | – | – | – | –
CC(=O)O[C@H]1C(=O)[C@@]2(C)[C@H]([C@H](OC(=O)c3ccccc3)[C@]3(O)C[C@H](OC(=O)[C@H](O)[C@@H](NC(=O)c4ccccc4)c4ccccc4)C(C)=C1C3(C)C)[C@]1(OC(C)=O)CO[C@@H]1C[C@@H]2O [PTX, Paclitaxel] | – | – | – | – | – | almost the same antiangiogenesis effect | – | high toxicity | – | 1.37 (≈ 1.6 µM) | 0.62 ± 0.08 | 21.5 ± 2.83 | 3.34 ± 0.5 | 1.79 ± 0.13 | obvious
Avstin: positive control of the cell migration assay, 10 µg/mL | – | 69.89 | – | – | – | – | – | – | – | – | – | – | – | – | –
